Measured values taken from US20240116921A1, “LACTAM (HETERO)[…] DERIVATIVES AS INHIBITORS OF ERBB2” (EnLiven Therapeutics, Inc., priority 2020, published 2024).
Structures can show the parent of a compound that is named as a salt. Where two headings read alike, the source gives them in different places.

Assays:
BT-474 = assay: Cell viability assay (CellTiter Glo), BT-474; format: cell-based; details: Homo sapiens; BT-474 cells, 72 hours, CellTiter Glo; read-out: IC50, cell viability, BT-474
[1] = molecular target: T1, phosphorylated ERBB2 (pERBB2) (Homo sapiens, UniProt P04626); assay: Detection of phosphorylated ERBB2 (pERBB2) by ELISA in BT-474 cells; format: cell-based; details: four hours incubation
T1 construct: endogenous in cells; host or cells: BT-474
How it was run: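 Phospho-ERBB2 in lysates was quantified by sandwich ELISA (A450, TMB) after 4 h compound exposure at 37 °C of BT-474 cells seeded at 2.0×10^4 per well. Compounds tested at 10 µM to 0.01 nM final in four-fold steps; activity normalized to DMSO (0.1%) high and cell-free low controls.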

[2] = molecular target: T2, phosphorylated EGFR (pEGFR) (Homo sapiens, UniProt P00533); assay: Detection of phosphorylated EGFR (pEGFR) in EGF-stimulated A431 cells; format: cell-based; details: A431 cells (10% FBS), 4 hours incubation, EGF 30 ng/mL 10 minutes, AlphaLISA
T2 construct: performed to measure phosphorylated EGFR levels using A431 cells (10% FBS); endogenous in cells; host or cells: A431
How it was run: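 AlphaLISA read-out of EGFR phosphorylation after a 10-min EGF pulse (30 ng/mL final). A431 cells (10% FBS) had been exposed to compound for 4 h at 37 °C. IC50 was fitted from % inhibition normalised to DMSO and staurosporine control lysates.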

A431 = assay: Cell viability assay (CellTiter Glo), A431; format: cell-based; details: Homo sapiens, A-431, A431 cells, 72 hours
[3] = molecular target: Ba/F3 ERBB2 A775_G776insYVMA (Homo sapiens, UniProt P04626, DUP772-775, cells depend on it); assay: Cell viability assay, Ba/F3 ERBB2 A775_G776insYVMA; format: cell-based, mouse; details: 72 hours, CellTiter Glo
How it was run: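 Viability after 72 h compound treatment (37 °C, 5% CO2) was quantified by CellTiter-Glo luminescence of intracellular ATP, with sigmoidal dose-response fitting. Cells were retrovirally engineered Ba/F3 lines whose growth depends on the mutant human ERBB2 in place of IL-3, plated at 3000 per well.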

[4] = Ba/F3 ERBB2 A775_G776insYVMA cells, Tables B2-B4, read-out: IC50, cell viability, Ba/F3 ERBB2 A775_G776insYVMA
[5] = Ba/F3 ERBB2 YVMA cells, cell viability, Table B5, read-out: Ba/F3 ERBB2 YVMA, IC50

T1 sequence (P04626 23-1255): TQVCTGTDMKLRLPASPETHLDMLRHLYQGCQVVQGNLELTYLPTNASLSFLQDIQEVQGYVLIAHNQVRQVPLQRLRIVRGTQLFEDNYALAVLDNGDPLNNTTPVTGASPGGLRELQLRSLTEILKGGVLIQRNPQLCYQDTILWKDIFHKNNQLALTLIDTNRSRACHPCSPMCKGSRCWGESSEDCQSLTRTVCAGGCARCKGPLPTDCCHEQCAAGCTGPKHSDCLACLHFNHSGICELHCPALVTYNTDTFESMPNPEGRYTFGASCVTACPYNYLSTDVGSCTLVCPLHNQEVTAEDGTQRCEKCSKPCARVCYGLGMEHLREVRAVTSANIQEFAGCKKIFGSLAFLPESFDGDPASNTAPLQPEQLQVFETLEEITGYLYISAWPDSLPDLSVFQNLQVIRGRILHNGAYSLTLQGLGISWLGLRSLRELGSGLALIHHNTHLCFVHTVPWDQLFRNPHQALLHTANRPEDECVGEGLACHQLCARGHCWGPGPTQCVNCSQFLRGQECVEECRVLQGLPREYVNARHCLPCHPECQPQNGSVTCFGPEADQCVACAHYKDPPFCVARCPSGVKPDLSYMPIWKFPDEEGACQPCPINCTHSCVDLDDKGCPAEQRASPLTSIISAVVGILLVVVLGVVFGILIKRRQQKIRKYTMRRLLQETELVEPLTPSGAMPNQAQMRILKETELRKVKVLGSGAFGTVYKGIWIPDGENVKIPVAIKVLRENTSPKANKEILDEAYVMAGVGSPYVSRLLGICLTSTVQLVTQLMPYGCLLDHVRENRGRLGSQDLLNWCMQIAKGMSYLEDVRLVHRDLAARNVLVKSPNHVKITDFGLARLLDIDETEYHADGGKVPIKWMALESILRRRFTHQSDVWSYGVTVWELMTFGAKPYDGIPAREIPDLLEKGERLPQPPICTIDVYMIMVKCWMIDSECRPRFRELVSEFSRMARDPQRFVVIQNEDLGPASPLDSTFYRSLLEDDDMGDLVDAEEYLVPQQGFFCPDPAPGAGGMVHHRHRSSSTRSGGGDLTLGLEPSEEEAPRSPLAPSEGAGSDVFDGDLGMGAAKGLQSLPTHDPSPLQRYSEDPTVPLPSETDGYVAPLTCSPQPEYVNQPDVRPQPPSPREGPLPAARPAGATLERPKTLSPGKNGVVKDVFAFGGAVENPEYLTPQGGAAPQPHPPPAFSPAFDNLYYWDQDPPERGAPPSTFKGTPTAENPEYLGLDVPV
Ba/F3 ERBB2 A775_G776insYVMA, sequence (P04626 with tags, fused parts or gaps DUP772-775): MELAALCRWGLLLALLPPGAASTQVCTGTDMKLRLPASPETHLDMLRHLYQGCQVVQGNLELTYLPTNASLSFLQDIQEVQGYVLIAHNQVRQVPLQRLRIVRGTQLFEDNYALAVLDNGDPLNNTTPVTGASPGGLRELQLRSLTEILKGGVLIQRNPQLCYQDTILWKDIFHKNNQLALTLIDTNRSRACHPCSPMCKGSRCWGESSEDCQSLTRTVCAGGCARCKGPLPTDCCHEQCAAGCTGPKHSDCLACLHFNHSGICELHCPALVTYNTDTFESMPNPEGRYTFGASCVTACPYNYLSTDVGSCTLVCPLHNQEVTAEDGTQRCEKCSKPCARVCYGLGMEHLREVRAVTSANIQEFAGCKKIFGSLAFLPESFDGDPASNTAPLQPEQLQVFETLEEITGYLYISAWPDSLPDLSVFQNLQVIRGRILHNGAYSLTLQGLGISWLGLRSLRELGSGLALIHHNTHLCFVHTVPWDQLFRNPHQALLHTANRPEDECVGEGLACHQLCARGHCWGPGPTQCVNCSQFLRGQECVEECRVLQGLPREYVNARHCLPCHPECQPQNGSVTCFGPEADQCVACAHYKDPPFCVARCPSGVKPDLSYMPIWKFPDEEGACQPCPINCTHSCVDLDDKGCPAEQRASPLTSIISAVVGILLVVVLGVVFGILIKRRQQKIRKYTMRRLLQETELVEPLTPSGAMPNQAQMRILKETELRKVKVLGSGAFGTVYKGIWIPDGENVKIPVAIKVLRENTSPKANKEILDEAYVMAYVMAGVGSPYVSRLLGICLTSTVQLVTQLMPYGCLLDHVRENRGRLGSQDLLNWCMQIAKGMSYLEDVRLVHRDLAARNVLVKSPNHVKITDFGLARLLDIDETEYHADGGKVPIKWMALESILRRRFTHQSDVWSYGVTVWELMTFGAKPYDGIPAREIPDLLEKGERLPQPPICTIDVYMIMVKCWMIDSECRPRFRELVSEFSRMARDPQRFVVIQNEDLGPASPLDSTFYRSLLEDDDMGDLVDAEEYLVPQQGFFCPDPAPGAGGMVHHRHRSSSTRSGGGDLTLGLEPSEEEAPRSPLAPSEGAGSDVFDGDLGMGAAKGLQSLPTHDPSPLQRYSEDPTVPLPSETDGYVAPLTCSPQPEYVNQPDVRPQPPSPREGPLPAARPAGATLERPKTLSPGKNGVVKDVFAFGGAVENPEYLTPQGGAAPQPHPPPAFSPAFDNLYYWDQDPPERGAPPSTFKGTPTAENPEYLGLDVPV
T2 sequence (P00533 25-1210): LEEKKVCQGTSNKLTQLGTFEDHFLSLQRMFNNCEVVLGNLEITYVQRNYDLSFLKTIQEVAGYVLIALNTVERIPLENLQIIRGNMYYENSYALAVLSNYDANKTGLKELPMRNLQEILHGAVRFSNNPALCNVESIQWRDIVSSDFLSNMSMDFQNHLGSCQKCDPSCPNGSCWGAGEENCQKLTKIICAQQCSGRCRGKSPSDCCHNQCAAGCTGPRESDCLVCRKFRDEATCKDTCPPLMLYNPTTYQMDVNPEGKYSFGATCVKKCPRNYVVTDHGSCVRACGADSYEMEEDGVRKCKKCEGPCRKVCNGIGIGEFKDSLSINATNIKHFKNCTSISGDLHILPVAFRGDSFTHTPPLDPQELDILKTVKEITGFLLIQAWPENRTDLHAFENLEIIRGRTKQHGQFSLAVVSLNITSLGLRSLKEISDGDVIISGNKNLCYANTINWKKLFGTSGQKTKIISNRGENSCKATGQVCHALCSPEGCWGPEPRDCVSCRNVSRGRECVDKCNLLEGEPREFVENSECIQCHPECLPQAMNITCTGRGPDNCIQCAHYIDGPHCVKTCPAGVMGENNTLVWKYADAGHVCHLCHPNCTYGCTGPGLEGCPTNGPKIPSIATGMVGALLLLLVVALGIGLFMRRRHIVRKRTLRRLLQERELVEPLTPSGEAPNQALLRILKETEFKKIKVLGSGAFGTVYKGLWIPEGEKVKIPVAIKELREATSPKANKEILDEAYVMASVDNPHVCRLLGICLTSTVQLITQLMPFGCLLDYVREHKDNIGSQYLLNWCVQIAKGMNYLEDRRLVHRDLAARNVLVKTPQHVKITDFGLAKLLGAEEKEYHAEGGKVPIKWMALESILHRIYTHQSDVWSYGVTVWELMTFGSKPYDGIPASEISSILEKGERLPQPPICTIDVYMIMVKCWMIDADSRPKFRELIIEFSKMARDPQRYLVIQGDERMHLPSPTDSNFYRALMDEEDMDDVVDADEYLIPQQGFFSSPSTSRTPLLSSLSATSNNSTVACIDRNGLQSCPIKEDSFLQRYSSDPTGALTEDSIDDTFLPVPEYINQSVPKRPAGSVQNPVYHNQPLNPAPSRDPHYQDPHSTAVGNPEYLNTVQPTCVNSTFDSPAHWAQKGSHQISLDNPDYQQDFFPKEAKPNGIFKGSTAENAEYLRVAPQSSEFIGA

| SMILES | IC50 (BT-474) | IC50 [1] | IC50 [2] | IC50 (A431) | GI50 [3, 4] | GI50 [3, 5] |
| --- | --- | --- | --- | --- | --- | --- |
| C=C1C(=O)N(c2ccc3ncnc(Nc4ccc(Oc5ccn6ncnc6c5)c(C)c4)c3c2)CC12CC2 [Compound 2, 5-[4-[(3-methyl-4-[[1,2,4]triazolo[1,5-a]pyridin-7-yloxy]phenyl)amino]quinazolin-6-yl]-7-methylidene-5-azaspiro[2.4]heptan-6-one] | 0.0195 µM | 0.0759 µM | > 10 µM |  |  |  |
| C=C1CCN(c2ccc3ncnc(Nc4ccc(Oc5ccn(C)c(=O)c5)c(C)c4)c3c2)C1=O [Compound 5, 1-methyl-4-(2-methyl-4-[[6-(3-methylidene-2-oxopyrrolidin-1-yl)quinazolin-4-yl]amino]phenoxy)pyridin-2-one] | 0.0278 µM |  |  | > 10 µM | 0.236 µM |  |
| C=C1CCN(c2ccc3ncnc(Nc4ccc(Oc5cnc(C)cn5)c(C)c4)c3c2)C1=O [Compound 6, 1-[4-([3-methyl-4-[(5-methylpyrazin-2-yl)oxy]phenyl]amino)quinazolin-6-yl]-3-methylidenepyrrolidin-2-one] | 0.0161 µM |  |  | > 6.52 µM | > 1 µM |  |
| C=C1CCN(c2ccc3ncnc(Nc4ccc(Cc5ccc(C)nc5)cc4)c3c2)C1=O [Compound 8, 3-methylidene-1-[4-([4-[(6-methylpyridin-3-yl)methyl]phenyl]amino)quinazolin-6-yl]pyrrolidin-2-one] | 0.0529 µM |  |  | 7.5 µM |  |  |
| C=C1CCN(c2ccc3ncnc(Nc4ccc(Cc5ccn6ncnc6c5)cc4)c3c2)C1=O [Compound 9, 3-methylidene-1-[4-[(4-[[1,2,4]triazolo[1,5-a]pyridin-7-ylmethyl]phenyl)amino]quinazolin-6-yl]pyrrolidin-2-one] | 0.0447 µM |  |  | > 10 µM |  |  |
| C=C1CCN(c2ccc3ncnc(Nc4ccc(Oc5ccn6ncnc6c5)c(Cl)c4)c3c2)C1=O [Compound 10, 1-[4-[(3-chloro-4-[[1,2,4]triazolo[1,5-a]pyridin-7-yloxy]phenyl)amino]quinazolin-6-yl]-3-methylidenepyrrolidin-2-one] | 0.0271 µM |  |  | 0.673 µM |  |  |
| C=C1CCN(c2ccc3ncnc(Nc4ccc(Oc5ccn6ncnc6c5)c(F)c4)c3c2)C1=O [Compound 11, 1-[4-[(3-fluoro-4-[[1,2,4]triazolo[1,5-a]pyridin-7-yloxy]phenyl)amino]quinazolin-6-yl]-3-methylidenepyrrolidin-2-one] | 7.67 µM |  |  | 6.51 µM |  |  |
| C=C1CCN(c2ccc3ncnc(Nc4ccc(Oc5ccn6ncnc6c5)c(C)c4F)c3c2)C1=O [Compound 14, 1-[4-[(2-fluoro-3-methyl-4-[[1,2,4]triazolo[1,5-a]pyridin-7-yloxy]phenyl)amino]quinazolin-6-yl]-3-methylidenepyrrolidin-2-one] | 0.00432 µM | 0.0269 µM | 3.8 µM |  |  |  |
| C=C1CCN(c2ccc3ncnc(Nc4cc(C)c(Oc5ccn6ncnc6c5)cc4F)c3c2)C1=O [Compound 15, 1-[4 [(2-fluoro-5-methyl-4-[[1,2,4]triazolo[1,5-a]pyridin-7-yloxy]phenyl)amino]quinazolin-6-yl]-3-methylidenepyrrolidin-2-one] | 0.00327 µM | 0.00815 µM | 1.25 µM |  | 0.245 µM |  |
| C=C1CCN(c2ccc3ncnc(Nc4ccc(Cc5ccn6ncnc6c5)c(C)c4)c3c2)C1=O [Compound 16, 1-[4-[(3-methyl-4-[[1,2,4]triazolo[1,5-a]pyridin-7-ylmethyl]phenyl)amino]quinazolin-6-yl]-3-methylidenepyrrolidin-2-one] | 0.00467 µM | 0.00915 µM | 0.235 µM |  | 0.169 µM |  |
| Cc1cc(Nc2ncnc3ccc(N4CC/C(=C\CN(C)C)C4=O)cc23)ccc1Oc1ccn2ncnc2c1 [Compound 18, (E)-1-(4-(4-([1,2,4]triazolo[1,5-a]pyridin-7-yloxy)-3-methylphenylamino)quinazolin-6-yl)-3-(2-(dimethylamino)ethylidene)pyrrolidin-2-one hydrochloride] | 0.00373 µM | 0.00752 µM | > 9.64 µM |  | 0.0771 µM |  |
| CN(C)C/C=C1\CCN(c2cc3c(Nc4ccc(Oc5ccc6c(c5)ncn6C)c(F)c4)ncnc3cn2)C1=O [Compound 128, (3E)-3-[2-(dimethylamino)ethylidene]-1-[4-({3-fluoro-4-[(1-methyl-1,3-benzodiazol-5-yl)oxy]phenyl}amino)pyrido[3,4-d]pyrimidin-6-yl]pyrrolidin-2-one] |  | 0.0214 µM | > 10 µM |  |  | 0.0079 µM |
| CN(C)C/C=C1\CCN(c2cc3c(Nc4ccc(Oc5ccn6ncnc6c5)c(F)c4)ncnc3cn2)C1=O [Compound 129, (3E)-3-[2-(dimethylamino)ethylidene]-1-{4-[(3-fluoro-4-{[1,2,4]triazolo[1,5-a]pyridin-7-yloxy}phenyl)amino]pyrido[3,4-d]pyrimidin-6-yl}pyrrolidin-2-one] |  | 0.0119 µM | 2.32 µM |  |  | 0.0193 µM |
| Cc1cc(Nc2ncnc3ccc(N4CC/C(=C\CN(C)C)C4=O)nc23)ccc1Oc1cncc(F)c1 [Compound 130, (3E)-3-[2-(dimethylamino)ethylidene]-1-[4-({4-[(5-fluoropyridin-3-yl)oxy]-3-methylphenyl}amino)pyrido[3,2-d]pyrimidin-6-yl]pyrrolidin-2-one] |  | 0.0406 µM | 0.187 µM |  |  | 0.0178 µM |
| CN(C)C/C=C1\CCN(c2cc3c(Nc4cc(Cl)c(Oc5ccn6ncnc6c5)cc4F)ncnc3cn2)C1=O [Compound 133, (E)-1-(4-((4-([1,2,4]triazolo[1,5-a]pyridin-7-yloxy)-5-chloro-2-fluorophenyl)amino)pyrido[3,4-d]pyrimidin-6-yl)-3-(2-(dimethylamino)ethylidene)pyrrolidin-2-one] |  | 0.0109 µM | 1.14 µM |  |  | 0.0169 µM |
| Cc1cc(Nc2ncnc3cnc(N4CC/C(=C\C5CN(C)C5)C4=O)cc23)c(F)cc1Oc1ccn2ncnc2c1 [Compound 138, (3E)-1-{4-[(2-fluoro-5-methyl-4-{[1,2,4]triazolo[1,5-a]pyridin-7-yloxy}phenyl)amino]pyrido[3,4-d]pyrimidin-6-yl}-3-[(1-methylazetidin-3-yl)methylidene]pyrrolidin-2-one] |  | 0.0168 µM | > 10 µM |  |  | 0.0996 µM |
| Cc1cc(Nc2ncnc3ccc(N4CC/C(=C\C5CN(C)C5)C4=O)nc23)ccc1Oc1ccn2ncnc2c1 [Compound 139, (3E)-1-{4-[(3-methyl-4-{[1,2,4]triazolo[1,5-a]pyridin-7-yloxy}phenyl)amino]pyrido[3,2-d]pyrimidin-6-yl}-3-[(1-methylazetidin-3-yl)methylidene]pyrrolidin-2-one] |  | 0.0143 µM | > 10 µM |  |  | 0.0157 µM |
| CN(C)C/C=C1\CCN(c2cc3c(Nc4cc(F)c(Oc5ccn6ncnc6c5)cc4F)ncnc3cn2)C1=O [Compound 140, (3E)-1-{4-[(2,5-difluoro-4-{[1,2,4]triazolo[1,5-a]pyridin-7-yloxy}phenyl)amino]pyrido[3,4-d]pyrimidin-6-yl}-3-[2-(dimethylamino)ethylidene]pyrrolidin-2-one] |  | 0.0205 µM | > 10 µM |  |  | 0.0781 µM |
| CN(C)C/C=C1\CCN(c2ccc3ncnc(Nc4cc(F)c(Oc5ccn6ncnc6c5)cc4F)c3n2)C1=O [Compound 141, (E)-1-(4-((4-([1,2,4]triazolo[1,5-a]pyridin-7-yloxy)-2,5-difluorophenyl)amino)pyrido[3,2-d]pyrimidin-6-yl)-3-(2-(dimethylamino)ethylidene)pyrrolidin-2-one] |  | 0.0238 µM | > 10 µM |  |  | 0.0285 µM |
| Cc1cc(Nc2ncnc3ccc(N4C(=O)/C(=C\CN(C)C)C5CC54)nc23)ccc1Oc1ccn2ncnc2c1 (centres unmarked) [Compound 142, (4Z)-4-[2-(dimethylamino)ethylidene]-2-{4-[(3-methyl-4-{[1,2,4]triazolo[1,5-a]pyridin-7-yloxy}phenyl)amino]pyrido[3,2-d]pyrimidin-6-yl}-2-azabicyclo[3.1.0]hexan-3-one] |  | 0.0154 µM | 0.543 µM |  |  | 0.0058 µM |
| Cc1cc(Nc2ncnc3cnc(N4CC/C(=C\CN(C)C)C4=O)cc23)ccc1Oc1cncc(F)c1 [Compound 155, (3E)-3-[2-(dimethylamino)ethylidene]-1-[4-({4-[(5-fluoropyridin-3-yl)oxy]-3-methylphenyl}amino)pyrido[3,4-d]pyrimidin-6-yl]pyrrolidin-2-one] |  | 0.0179 µM | 0.331 µM |  |  | 0.0354 µM |
| CN(C)C/C=C1\CCN(c2ccc3ncnc(Nc4ccc(Oc5ccn6ncnc6c5)cc4F)c3n2)C1=O [Compound 156, (E)-1-(4-((4-([1,2,4]triazolo[1,5-a]pyridin-7-yloxy)-2-fluorophenyl)amino)pyrido[3,2-d]pyrimidin-6-yl)-3-(2-(dimethylamino)ethylidene)pyrrolidin-2-one] |  | 0.0217 µM | 7.76 µM |  |  | 0.0233 µM |
